SMILES strings stand for the structures. Bounds are passed on as bounds.

The subject of this assay is HIV-1 single-round infectious reporter virus. In words: Single-round infectious HIV-1 luciferase reporter virus infection of HeLa CD4 cells. Format: cell-based. Particulars: Human immunodeficiency virus 1, HeLa, 72 h, read-out: EC50 Group from Table 1. On the procedure:
• Virus production—Human embryonic Kidney cell line, 293, was propagated in Dulbecco's Modified Eagle Medium (Invitrogen, Carlsbad, Calif.) containing 10% fetal Bovine serum (FBS, Sigma, St. Louis, Mo.). • Virus infection—Human epithelial cell line, HeLa, expressing the HIV-1 receptor CD4 was propagated in Dulbecco's Modified Eagle Medium (Invitrogen, Carlsbad, Calif.) containing 10% fetal Bovine serum (FBS, Sigma, St. Louis, Mo.) and supplemented with 0.2 mg/mL Geneticin (Invitrogen, Carlsbad, Calif.). Virus-Single-round infectious reporter virus was produced by co-transfecting human embryonic Kidney 293 cells with an HIV-1 envelope DNA expression vector and a proviral cDNA containing an envelope deletion mutation and the luciferase reporter gene inserted in place of HIV-1 nef sequences (Chen et al, Ref 41). Transfections were performed using lipofectAMINE PLUS reagent as described by the manufacturer (Invitrogen, Carlsbad, Calif.). Experiment • 1. HeLa CD4 cells were plated in 96 well plates at a cell density of 1×10^4 cells per well in 100 μl Dulbecco's Modified Eagle Medium containing 10% fetal Bovine serum and incubated overnight. • 2. Compound was added in a 2 μl dimethylsulfoxide solution, so that the final assay concentration would be ≦10 μM. • 3. 100 μl of single-round infectious reporter virus in Dulbecco's Modified Eagle Medium was then added to the plated cells and compound at an approximate multiplicity of infection (MOI) of 0.01, resulting in a final volume of 200 μl per well. • 4. Virally-infected cells were incubated at 37 degrees Celsius, in a CO2 incubator, and harvested 72 h after infection. • 5. Viral infection was monitored by measuring luciferase expression from viral DNA in the infected cells using a luciferase reporter gene assay kit, as described by the manufacturer (Roche Molecular Biochemicals, Indianapolis, Ind.). Infected cell supernatants were removed and 50 μl of lysis buffer was added per well. After 15 minutes, 50 μl of freshly-reconstituted luciferase assay reagent was added per well. Luciferase activity was then quantified by measuring luminescence using a Wallac microbeta scintillation counter. • 6. The percent inhibition for each compound was calculated by quantifying the level of luciferase expression in cells infected in the presence of each compound as a percentage of that observed for cells infected in the absence of compound and subtracting such a determined value from 100. • 7. An EC50 provides a method for comparing the antiviral potency of the compounds of this invention. The effective concentration for fifty percent inhibition (EC50) was calculated with the Microsoft Excel Xlfit curve fitting software. For each compound, curves were generated from percent inhibition calculated at 10 different concentrations by using a four paramenter logistic model (model 205). Table 1 is the key for the data in Table 2. Results
For orientation: A reporter such as luciferase makes a cellular process visible.
By EC50 is commonly meant the concentration at which the effect is half-maximal. On to `COc1cnc(-n2ccnn2)c2[nH]cc(C(=O)C(=O)N3CCN(c4ncnc5ccccc45)CC3)c12` [Example 52], for which the EC50 is below 1 µM.

Take `COc1cnc(Br)c2[nH]cc(C(=O)C(=O)N3CCN(c4ncnc5ccccc45)CC3)c12` [Example 53]: the EC50 was below 1 µM.

As for `COc1cnc(-n2ccnn2)c2[nH]cc(C(=O)C(=O)N3CCN(c4nncc5ccccc45)CC3)c12` [Example 54], the EC50 was below 1 µM.

As to `COc1cnc(-n2cnc(C)n2)c2[nH]cc(C(=O)C(=O)N3CCN(c4nncc5ccccc45)CC3)c12` [Example 55], the EC50 was below 1 µM.

Regarding `O=C(C(=O)N1CCN(c2nncc3ccccc23)CC1)c1c[nH]c2c(-n3ccnn3)ncc(F)c12` [Example 56], the EC50 is below 1 µM.

On to `COc1nnc(N2CCN(C(=O)C(=O)c3c[nH]c4c(-n5cnc(C)n5)ncc(OC)c34)CC2)c2ccccc12` [Example 57], for which the EC50 was below 1 µM.

With `COc1cnc(-n2cnc(C)n2)c2[nH]cc(C(=O)C(=O)N3CCN(c4nnc(O)c5ccccc45)CC3)c12` [Example 58], the EC50 is below 1 µM.

Consider `Cc1nc(N2CCN(C(=O)C(=O)c3c[nH]c4c(-n5ccnn5)ncc(F)c34)CC2)c2ccccc2n1` [Example 59], for which the EC50 was below 1 µM.

In the case of `COc1cnc(-n2cnc(C)n2)c2[nH]cc(C(=O)C(=O)N3CCN(c4nc(C)nc5ccccc45)CC3)c12` [Example 60], the EC50 is below 1 µM.

As to `COc1cnc(-n2ccnn2)c2[nH]cc(C(=O)C(=O)N3CCN(c4nc(C)nc5ccccc45)CC3)c12` [Example 61], the EC50 is below 1 µM.

Consider `COc1cnc(Br)c2[nH]cc(C(=O)C(=O)N3CCN(c4nncc5ccccc45)CC3)c12` [Example 62], for which the EC50 is below 1 µM.

Regarding `COc1cnc(C(N)=O)c2[nH]cc(C(=O)C(=O)N3CCN(c4nncc5ccccc45)CC3)c12` [Example 64], the EC50 was below 1 µM.

Turning to `COc1cnc(-n2cnc(C)n2)c2[nH]cc(C(=O)C(=O)N3CCN(c4nc(N)cc5ccccc45)CC3)c12` [Example 65], the EC50 is below 1 µM.

Consider `COc1cnc(-n2cnc(C)n2)c2[nH]cc(C(=O)C(=O)N3CCN(c4nc(Cl)cc5ccccc45)CC3)c12` [Example 66], for which the EC50 was below 1 µM.

With `COc1cnc(-n2ccnn2)c2[nH]cc(C(=O)C(=O)N3CCN(c4nc(Cl)cc5ccccc45)CC3)c12` [Example 67], the EC50 is below 1 µM.

As to `O=C(C(=O)N1CCN(c2nc(Cl)cc3ccccc23)CC1)c1c[nH]c2c(-n3ccnn3)ncc(F)c12` [Example 68], the EC50 is below 1 µM.

`COc1cnc(-n2cnc(C#N)n2)c2[nH]cc(C(=O)C(=O)N3CCN(c4ncnc5ccccc45)CC3)c12` [Example 69]: the EC50 was below 1 µM.

On to `COc1cnc(-n2cnc(C(N)=O)n2)c2[nH]cc(C(=O)C(=O)N3CCN(c4ncnc5ccccc45)CC3)c12` [Example 70], for which the EC50 is below 1 µM.

Regarding `O=C(C(=O)N1CCN(c2nccc3ccccc23)CC1)c1c[nH]c2c(-c3ccccn3)ncc(F)c12` [Example 72], the EC50 was below 1 µM.

In the case of `O=C(C(=O)N1CCN(c2ncnc3ccccc23)CC1)c1c[nH]c2c(Br)ncc(F)c12` [Example 73], the EC50 is below 1 µM.

In the case of `COc1cnc(Cl)c2[nH]cc(C(=O)C(=O)N3CCN(c4ncnc5ccccc45)CC3)c12` [Example 75], the EC50 was below 1 µM.

Regarding `O=C(C(=O)N1CCN(c2nncc3ccccc23)CC1)c1c[nH]c2c(-c3ccccn3)ncc(F)c12` [Example 77], the EC50 is below 1 µM.

Take `O=C(C(=O)N1CCN(c2nncc3ccccc23)CC1)c1c[nH]c2c(-c3cnccn3)ncc(F)c12` [Example 78]: the EC50 was below 1 µM.

As for `O=C(C(=O)N1CCN(c2ncnc3ccccc23)CC1)c1c[nH]c2c(-c3ccncc3)ncc(F)c12` [Example 79], the EC50 fell in the range of 1 to 5 µM.

In the case of `COc1cnc(-c2cncnc2)c2[nH]cc(C(=O)C(=O)N3CCN(c4ncnc5ccccc45)CC3)c12` [Example 80], the EC50 was below 1 µM.

With `O=C(C(=O)N1CCN(c2ncnc3ccccc23)CC1)c1c[nH]c2c(-c3cncnc3)ncc(F)c12` [Example 81], the EC50 was below 1 µM.

With `COc1ncc(-c2ncc(F)c3c(C(=O)C(=O)N4CCN(c5ncnc6ccccc56)CC4)c[nH]c23)cn1` [Example 82], the EC50 is below 1 µM.

With `O=C(C(=O)N1CCN(c2ncnc3ccccc23)CC1)c1c[nH]c2c(-c3cccnc3)ncc(F)c12` [Example 83], the EC50 is below 1 µM.

For `O=C(C(=O)N1CCN(c2ncnc3ccccc23)CC1)c1c[nH]c2c(-c3ncccn3)ncc(F)c12` [Example 84], the EC50 was below 1 µM.

`COc1cnc(-n2cncn2)c2[nH]cc(C(=O)C(=O)N3CCN(c4ccnc5ccccc45)CC3)c12` [Example 85]: the EC50 was below 1 µM.

In the case of `COc1cc(N2CCN(C(=O)C(=O)c3c[nH]c4c(-n5cncn5)ncc(OC)c34)CC2)c2cc(C)ccc2n1` [Example 86], the EC50 was below 1 µM.

Regarding `N#Cc1ncc(F)c2c(C(=O)C(=O)N3CCN(c4nccc5ccccc45)CC3)c[nH]c12` [Example 87], the EC50 is below 1 µM.

For `O=C(C(=O)N1CCN(c2nccc3ccccc23)CC1)c1c[nH]c2c(-c3nc(-c4ccccc4)n[nH]3)ncc(F)c12` [Example 88], the EC50 was below 1 µM.

Consider `N=C(NNC(=O)c1ccccc1)c1ncc(F)c2c(C(=O)C(=O)N3CCN(c4nccc5ccccc45)CC3)c[nH]c12` [Example 89], for which the EC50 is below 1 µM.

In the case of `COc1cnc(-n2cnc(C)n2)c2[nH]cc(C(=O)C(=O)N3CCN(c4ccc5ccccc5n4)CC3)c12` [Example 90], the EC50 is below 1 µM.

For the compound `O=C(C(=O)N1CCN(c2ccc3ccccc3n2)CC1)c1c[nH]c2c(-n3ccnn3)ncc(F)c12` [Example 91], the half-maximal effective concentration (EC50) was below 1 µM.

As for `O=C(C(=O)N1CCN(c2nncc3ccccc23)CC1)c1c[nH]c2c(Br)ncc(F)c12` [Example 92], the EC50 is below 1 µM.

Turning to `O=C(C(=O)N1CCN(c2nncc3ccccc23)CC1)c1c[nH]c2c(-c3cn[nH]c3)ncc(F)c12` [Example 93], the concentration for a half-maximal effect (EC50) was below 1 µM.

In the case of `O=C(C(=O)N1CCN(c2ncnc3ccccc23)CC1)c1c[nH]c2c(-c3cc[nH]n3)ncc(F)c12` [Example 94], the EC50 is below 1 µM.

`O=C(C(=O)N1CCN(c2ncnc3ccccc23)CC1)c1c[nH]c2c(-c3cn[nH]c3)ncc(F)c12` [Example 95]: the EC50 was below 1 µM.

Turning to `COc1cnc(-c2cc[nH]n2)c2[nH]cc(C(=O)C(=O)N3CCN(c4ncnc5ccccc45)CC3)c12` [Example 96], the EC50 was below 1 µM.

(Values after patent US8039486B2, “Indole, azaindole and related heterocyclic N-substituted piperazine derivatives” (priority 2003, dated 2011).)
